Data published in PubChem BioAssay (NCI).
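Values below derive from 48-hour exposures of cells grown in 96-well plates, with endpoints linearly interpolated between the two concentrations bracketing the appropriate inhibition level. TGI: concentration producing complete growth inhibition.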

Experiments:
Experiment in all cases: inhibition of tumour cell growth, NCI panel, 48 h
786-0 renal = tested on: 786-0 renal
A498 renal = tested on: A498 renal
A549 NSCLC = tested on: A549 NSCLC
ACHN renal = tested on: ACHN renal
CAKI-1 renal = tested on: CAKI-1 renal
CCRF-CEM leukemia = tested on: CCRF-CEM leukemia
COLO 205 colon = tested on: COLO 205 colon
DLD-1 colon = tested on: DLD-1 colon
DMS 114 small cell lung = tested on: DMS 114 small cell lung
DMS 273 small cell lung = tested on: DMS 273 small cell lung
HCC-2998 colon = tested on: HCC-2998 colon
HCT-116 colon = tested on: HCT-116 colon
HCT-15 colon = tested on: HCT-15 colon
HL-60(TB) leukemia = tested on: HL-60(TB) leukemia
HOP-18 NSCLC = tested on: HOP-18 NSCLC
HOP-62 NSCLC = tested on: HOP-62 NSCLC
IGROV1 ovarian = tested on: IGROV1 ovarian
K-562 leukemia = tested on: K-562 leukemia
KM12 colon = tested on: KM12 colon
KM20L2 colon = tested on: KM20L2 colon
LXFL 529 NSCLC = tested on: LXFL 529 NSCLC
M14 melanoma = tested on: M14 melanoma
M19-MEL melanoma = tested on: M19-MEL melanoma
MALME-3M melanoma = tested on: MALME-3M melanoma
MOLT-4 leukemia = tested on: MOLT-4 leukemia
NCI-H226 lung = tested on: NCI-H226 lung
NCI-H460 lung = tested on: NCI-H460 lung
NCI-H522 lung = tested on: NCI-H522 lung
OVCAR-3 ovarian = tested on: OVCAR-3 ovarian
OVCAR-4 ovarian = tested on: OVCAR-4 ovarian
OVCAR-8 ovarian = tested on: OVCAR-8 ovarian
RPMI-8226 leukemia = tested on: RPMI-8226 leukemia
RXF 393 renal = tested on: RXF 393 renal
RXF-631 renal = tested on: RXF-631 renal
SF-268 CNS = tested on: SF-268 CNS
SF-539 CNS = tested on: SF-539 CNS
SK-MEL-2 melanoma = tested on: SK-MEL-2 melanoma
SK-MEL-28 melanoma = tested on: SK-MEL-28 melanoma
SK-MEL-5 melanoma = tested on: SK-MEL-5 melanoma
SK-OV-3 ovarian = tested on: SK-OV-3 ovarian
SN12C renal = tested on: SN12C renal
SNB-19 CNS = tested on: SNB-19 CNS
SNB-75 CNS = tested on: SNB-75 CNS
SNB-78 CNS = tested on: SNB-78 CNS
SR leukemia = tested on: SR leukemia
SW-620 colon = tested on: SW-620 colon
TK-10 renal = tested on: TK-10 renal
U251 CNS = tested on: U251 CNS
UACC-257 melanoma = tested on: UACC-257 melanoma
UACC-62 melanoma = tested on: UACC-62 melanoma
UO-31 renal = tested on: UO-31 renal
EKVX NSCLC = tested on: EKVX NSCLC
LOX IMVI melanoma = tested on: LOX IMVI melanoma
NCI-H23 lung = tested on: NCI-H23 lung
OVCAR-5 ovarian = tested on: OVCAR-5 ovarian
SF-295 CNS = tested on: SF-295 CNS
XF 498 CNS = tested on: XF 498 CNS

Measured: TGI

N#C[C@]12CC3(CC[C@H]1CC1(C2)OCCO1)OCCO3
> 100 µM: 786-0 renal | A498 renal | A549 NSCLC | ACHN renal | CAKI-1 renal | CCRF-CEM leukemia | COLO 205 colon | DLD-1 colon | DMS 114 small cell lung | DMS 273 small cell lung | HCC-2998 colon | HCT-116 colon | HCT-15 colon | HL-60(TB) leukemia | HOP-18 NSCLC | HOP-62 NSCLC | IGROV1 ovarian | K-562 leukemia | KM12 colon | KM20L2 colon | LXFL 529 NSCLC | M14 melanoma | M19-MEL melanoma | MALME-3M melanoma | MOLT-4 leukemia | NCI-H226 lung | NCI-H460 lung | NCI-H522 lung | OVCAR-3 ovarian | OVCAR-4 ovarian | OVCAR-8 ovarian | RPMI-8226 leukemia | RXF 393 renal | RXF-631 renal | SF-268 CNS | SF-539 CNS | SK-MEL-2 melanoma | SK-MEL-28 melanoma | SK-MEL-5 melanoma | SK-OV-3 ovarian | SN12C renal | SNB-19 CNS | SNB-75 CNS | SNB-78 CNS | SR leukemia | SW-620 colon | TK-10 renal | U251 CNS | UACC-257 melanoma | UACC-62 melanoma | UO-31 renal

O=C(c1ccccc1)c1ccc2cccc(O)c2n1
28 µM: LOX IMVI melanoma | M14 melanoma
68.3 µM: U251 CNS
52.7 µM: SF-295 CNS
70.9 µM: MOLT-4 leukemia
51.8 µM: CCRF-CEM leukemia
51.6 µM: 786-0 renal
> 100 µM: A549 NSCLC | ACHN renal | CAKI-1 renal | COLO 205 colon | DLD-1 colon | DMS 273 small cell lung | HCC-2998 colon | HCT-15 colon | HOP-18 NSCLC | HOP-62 NSCLC | IGROV1 ovarian | K-562 leukemia | KM12 colon | KM20L2 colon | M19-MEL melanoma | MALME-3M melanoma | NCI-H226 lung | NCI-H23 lung | OVCAR-3 ovarian | OVCAR-4 ovarian | OVCAR-5 ovarian | RPMI-8226 leukemia | RXF-631 renal | SF-268 CNS | SF-539 CNS | SK-MEL-2 melanoma | SK-MEL-28 melanoma | SN12C renal | SNB-19 CNS | SNB-75 CNS | SNB-78 CNS | SR leukemia | TK-10 renal | UACC-62 melanoma | UO-31 renal | XF 498 CNS
69 µM: EKVX NSCLC | RXF 393 renal
39.1 µM: DMS 114 small cell lung
35.1 µM: HCT-116 colon
39.8 µM: NCI-H522 lung
75.8 µM: SK-MEL-5 melanoma
32.4 µM: SW-620 colon
71.9 µM: OVCAR-8 ovarian
